This passage reports Ki, AC50 and melting point results from US20230250109A1, “MACROCYCLIC ETHER CONTAINING INDOLE DERIVATIVES AS INHIBITORS OF MCL-1” (Janssen Pharmaceutica NV, priority 2020, published 2023).

Data set [1] concerns the target Myeloid Cell Leukemia 1 (Mcl-1) (Homo sapiens, UniProt Q07820). Kind of data set: Terbium labeled Mcl-1 HTRF binding assay (displacement of Cy5-labeled BIM BH3 peptide). The following applies: 25 pM Tb-Mcl-1, 8 nM Cy5 Bim peptide, Ki=IC50/(1+[L]/Kd), [L]=8 nM, Kd=10 nM, 60 min at room temperature, read-out: Tb-MCL1 Ki. How it is done: Terbium labeled Myeloid Cell Leukemia 1 (Mcl-1) homogeneous time-resolved fluorescence (HTRF) binding assay utilizing the BIM BH3 peptide (H2N—(C/Cy5Mal) WIAQELRRIGDEFN-OH) as the binding partner for Mcl-1.
This assay evaluated inhibition of the BH3 domain: Mcl-1 interaction by measuring the displacement of Cy5-labeled BIM BH3 peptide (H2N—(C/Cy5Mal) WIAQELRRIGDEFN-OH) in the HTRF assay format.
The following assay and stock buffers were prepared for use in the assay: (a) Stock buffer: 10 mM Tris-HCl, pH=7.5+150 mM NaCl, filtered, sterilized, and stored at 4° C.; and (b) 1× assay buffer, where the following ingredients were added fresh to stock buffer: 2 mM dithiothreitol (DTT), 0.0025% Tween-20, 0.1 mg/mL bovine serum albumin (BSA). The 1×Tb-Mcl-1+Cy5 Bim peptide solution was prepared by diluting the protein stock solution using the 1×assay buffer (b) to 25 pM Tb-Mcl-1 and 8 nM Cy5 Bim peptide.
Using the Acoustic ECHO, 100 nL of 100×test compound(s) were dispensed into individual wells of a white 384-well Perkin Elmer Proxiplate, for a final compound concentration of 1×and final DMSO concentration of 1%. Inhibitor control and neutral control (NC, 100 nL of 100% DMSO) were stamped into columns 23 and 24 of assay plate, respectively. Into each well of the plate was then dispensed 10 μL of the 1× Tb-Mcl-1+Cy5 Bim peptide solution. The plate was centrifuged with a cover plate at 1000 rpm for 1 minute, then incubated for 60 minutes at room temperature with plates covered. The TR-FRET signal was read on an BMG PHERAStar FSX MicroPlate Reader at room temperature using the HTRF optic module (HTRF: excitation: 337 nm, light source: laser, emission A: 665 nm, emission B: 620 nm, integration start: 60 μs, integration time: 400 μs).
The BMG PHERAStar FSX MicroPlate Reader was used to measure fluorescence intensity at two emission wavelengths—665 nm and 620 nm—and report relative fluorescence units (RFU) for both emissions, as well as a ratio of the emissions (665 nm/620 nm)*10,000. The RFU values were normalized to percent inhibition as follows:
35% inhibition=(((NC−IC)−(compound−IC))/(NC−IC))*100
where IC (inhibitor control, low signal)=mean signal of 1× Tb-MCl-1+Cy5 Bim peptide+ inhibitor control or 100% inhibition of Mcl-1; NC (neutral control, high signal)=mean signal 1× Tb-MCl-1+Cy5 Bim peptide with DMSO only or 0% inhibition An 11-point dose response curve was generated to determine IC50 values (using GenData) based on the following equation:
Y=Bottom+(Top−Bottom)/(1+10^((log IC50−X)*HillSlope))
where Y=% inhibition in the presence of X inhibitor concentration; Top=100% inhibition derived from the IC (mean signal of Mcl-1+ inhibitor control); Bottom=0% inhibition derived from the NC (mean signal of Mcl-1+ DMSO); Hillslope=Hill coefficient; and IC50=concentration of compound with 50% inhibition in relation to top/neutral control (NC).

Data set [2] relates to MOLP-8 human multiple myeloma cell line. Kind of data set: Caspase-Glo 3/7 apoptosis induction assay in MOLP-8 cells. Format: cell-based. The following applies: 2 hours at 37° C., caspase-3/7 luminescence, averaged over all runs on all batches, read-out: MOLP8 Caspase-Glo AC50. The source says:
MCL-1 is a regulator of apoptosis and is highly over-expressed in tumor cells that escape cell death. The assay evaluates the cellular potency of small-molecule compounds targeting regulators of the apoptosis pathway, primarily MCL-1, Bfl-1, Bcl-2, and other proteins of the Bcl-2 family. Protein-protein inhibitors disrupting the interaction of anti-apoptotic regulators with BH3-domain proteins initiate apoptosis.
The Caspase-Glo® 3/7 Assay is a luminescent assay that measures caspase-3 and -7 activities in purified enzyme preparations or cultures of adherent or suspension cells. The assay provides a proluminescent caspase-3/7 substrate, which contains the tetrapeptide sequence DEVD. This substrate is cleaved to release aminoluciferin, a substrate of luciferase used in the production of light. Addition of the single Caspase-Glo® 3/7 Reagent in an “add-mix-measure” format results in cell lysis, followed by caspase cleavage of the substrate and generation of a “glow-type” luminescent signal. This assay uses the MOLP-8 human multiple myeloma cell line, which is sensitive to MCL-1 inhibition.
• Perkin Elmer Envision • Multidrop 384 and small volume dispensing cassettes • Centrifuge • Countess automated cell counter • Countess counting chamber slides • Assay plate: ProxiPlate-384 Plus, White 384-shallow well Microplate • Sealing tape: Topseal A plus • T175 culture flask
Cell cultures were maintained between 0.2 and 2.0×10^6 cells/mL. The cells were harvested by collection in 50 mL conical tubes. The cells were then pelleted at 500 g for 5 mins before removing supernatant and resuspension in fresh pre-warmed culture medium. The cells were counted and diluted as needed.
The assay reagent was prepared by transferring the buffer solution to the substrate vial and mixing. The solution may be stored for up to 1 week at 4° C. with negligible loss of signal.
Compounds were delivered in assay-ready plates (Proxiplate) and stored at −20° C. Assays always include 1 reference compound plate containing reference compounds. The plates were spotted with 40 nL of compounds (0.5% DMSO final in cells; serial dilution; […] highest conc. 1/3 dilution, 10 doses, duplicates). The compounds were used at room temperature and 4 μL of pre-warmed media was added to all wells except column 2 and 23. The negative control was prepared by adding 1% DMSO in media. The positive control was prepared by adding the appropriate positive control compound in final concentration of […] in media. The plate was prepared by adding 4 μL negative control to column 23, 4 μL positive control to column 2 and 4 μL cell suspension to all wells in the plate. The plate with cells was then incubated at 37° C. for 2 hours. The assay signal reagent is the Caspase-Glo solution described above, and 8 μL was added to all wells. The plates were then sealed and measured after 30 minutes.
The activity of a test compound was calculated as percent change in apoptosis induction as follows: […]

The structures appear in SMILES notation. pKi: −log10 of the molar value. Where two headings read alike, the source gives them in different places.

Chain of Myeloid Cell Leukemia 1 (Mcl-1) (Q07820 whole entry, the tested form may be a part): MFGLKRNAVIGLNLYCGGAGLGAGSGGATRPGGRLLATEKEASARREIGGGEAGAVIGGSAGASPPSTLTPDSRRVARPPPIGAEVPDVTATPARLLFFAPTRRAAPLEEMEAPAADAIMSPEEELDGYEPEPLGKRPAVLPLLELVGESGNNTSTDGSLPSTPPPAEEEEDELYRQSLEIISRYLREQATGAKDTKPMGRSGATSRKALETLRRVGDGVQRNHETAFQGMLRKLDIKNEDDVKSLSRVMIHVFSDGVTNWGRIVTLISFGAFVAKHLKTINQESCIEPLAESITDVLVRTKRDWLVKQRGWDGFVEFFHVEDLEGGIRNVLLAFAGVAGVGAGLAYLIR

As to `COCCOCCn1nc(C)c2c1COCc1cc(n(C)n1)CCc1cc(c3ccc(F)cc3c1)OCCCc1c(C(=O)O)n(C)c3c-2c(Cl)ccc13` (single isomer, unassigned) [Compound 19], the pKi (usually the Ki on a negative log10 scale, so that one unit is a factor of ten) in data set [1] is 8.87. Also, in data set [2], the AC50 (commonly the concentration at which the activity in the assay is half-maximal) came to 626 nM.
As for `Cc1c2c(nn1C)C(C)OCc1cc(n(C)n1)CSc1cc(c3ccccc3c1)OCCCc1c(C(=O)O)n(C)c3c-2c(Cl)ccc13` (single isomer, unassigned) [Compound 10], the pKi in data set [1] is 7.70. In addition, the AC50 in data set [2] was determined as 14700 nM.
On the same counts, the results for `Cc1c2c(nn1C)COCc1cc(n(C)n1)CCc1cc(c3ccccc3c1)OCCCc1c(C(=O)O)n(C)c3c-2c(Cl)ccc13` (single isomer, unassigned) [Compound 2] are 9.35 and 954 nM.
For `Cc1c2c(nn1C)C(C)OCc1cc(n(C)n1)CSc1cc(c3ccccc3c1)OCCCc1c(C(=O)O)n(C)c3c-2c(Cl)ccc13` (single isomer, unassigned) [Compound 9] the same measures were 9.62 and 246 nM.
For `COCCOCCn1nc(C)c2c1COCc1cc(n(C)n1)CCc1cc(c3ccc(F)cc3c1)OCCCc1c(C(=O)O)n(C)c3c-2c(Cl)ccc13` (single isomer, unassigned) [Compound 17] the same measures were 10.60 and 7.4 nM.
In the case of `CCc1c2c(nn1C)COCc1cc(n(C)n1)CSc1cc(c3ccccc3c1)OCCCc1c(C(=O)O)n(C)c3c-2c(Cl)ccc13` (single isomer, unassigned) [Compound 8], the melting point (commonly the temperature, or range, at which the solid turns liquid) was found to be 264.21 °C. Further, the pKi in data set [1] is 8.09. The AC50 in data set [2] came to 5380 nM.
In the case of `Cc1c2c(nn1C)COCc1cc(n[nH]1)CSc1cc(c3ccccc3c1)OCCCc1c(C(=O)O)n(C)c3c-2c(Cl)ccc13` (single isomer, unassigned) [Compound 13], in data set [1], the pKi is 9.89. Also, the AC50 in data set [2] was 411 nM.
`Cc1c2c(nn1C)C(C)OCc1cc(n(C)n1)CSc1cc(c3ccccc3c1)OCCCc1c(C(=O)O)n(C)c3c-2c(Cl)ccc13` (single isomer, unassigned) [Compound 12]: in data set [1], the pKi is 10.44. Moreover, in data set [2], the AC50 was determined as 59.4 nM.
On the same counts, the results for `COCCOCCn1nc2c(c1C)-c1c(Cl)ccc3c(c(C(=O)O)n(C)c13)CCCOc1cc(cc3cc(F)ccc13)CCc1cc(nn1C)COC2` (single isomer, unassigned) [Compound 18] are 10.70 and 17.6 nM.
For `Cc1c2c(nn1C)COCc1cc(n(C)n1)CSc1cc(c3ccccc3c1)OCCCc1c(C(=O)O)n(C)c3c-2c(Cl)ccc13` (single isomer, unassigned) [Compound 6] the same measures were 7.93 and 6640 nM.
With `Cc1c2c(nn1C)C(C)OCc1cc(n(C)n1)CSc1cc(c3ccccc3c1)OCCCc1c(C(=O)O)n(C)c3c-2c(Cl)ccc13` (single isomer, unassigned) [Compound 11], the pKi in data set [1] is 7.48. Moreover, the AC50 in data set [2] worked out at 18100 nM.
For `COCCOCCn1nc2c(c1C)-c1c(Cl)ccc3c(c(C(=O)O)n(C)c13)CCCOc1cc(cc3cc(F)ccc13)CCc1cc(nn1C)COC2` (single isomer, unassigned) [Compound 20] the same measures were 8.38 and 3450 nM.
Turning to `Cc1c2c(nn1C)COCc1cc(n(C)n1)CSc1cc(c3ccccc3c1)OCCCc1c(C(=O)O)n(C)c3c-2c(Cl)ccc13` (single isomer, unassigned) [Compound 5], the pKi in data set [1] was 10.24. Further, the AC50 in data set [2] stood at 83.7 nM.
Consider `Cc1c2c(nn1C)COCc1cc(n[nH]1)CSc1cc(c3ccccc3c1)OCCCc1c(C(=O)O)n(C)c3c-2c(Cl)ccc13` (single isomer, unassigned) [Compound 14], for which the pKi in data set [1] is 7.67. The AC50 in data set [2] is 18000 nM.
Turning to `Cc1c2c(nn1C)COCc1cc(n(C)n1)CCc1cc(c3ccccc3c1)OCCCc1c(C(=O)O)n(C)c3c-2c(Cl)ccc13` (single isomer, unassigned) [Compound 1], the pKi in data set [1] is 10.33. The AC50 in data set [2] came to 83.3 nM.
Turning to `Cc1c2c(nn1C)COCc1cc(nn1CCN(C)C)CSc1cc(c3ccccc3c1)OCCCc1c(C(=O)O)n(C)c3c-2c(Cl)ccc13` (single isomer, unassigned) [Compound 15], in data set [1], the pKi is 9.95. Further, the AC50 in data set [2] (Homo sapiens, MOLP-8, 2 h) worked out at 388 nM.
As for `Cc1c2c(nn1C)COCc1cc(n(CCN(C)C)n1)CSc1cc(c3ccccc3c1)OCCCc1c(C(=O)O)n(C)c3c-2c(Cl)ccc13` (single isomer, unassigned) [Compound 16], the negative logarithm of the Ki (pKi) in data set [1] is 10.14. In addition, in data set [2] (Homo sapiens, MOLP-8, 2 h), the AC50 was 185 nM.
In turn, `CCc1c2c(nn1C)COCc1cc(n(C)n1)CSc1cc(c3ccccc3c1)OCCCc1c(C(=O)O)n(C)c3c-2c(Cl)ccc13` (single isomer, unassigned) [Compound 7] had a melting point of 269.16 °C. The pKi in data set [1] is 10.26. For the same molecule, in data set [2], the AC50 turned out to be 83.7 nM.
